Results: patent US20250161245A1, “A MIXTURE OF UREA, BIURET AND N-CONTAINING BY-PRODUCTS CREATED DURING BIURET PRODUCTION AS A DIETARY NON-PROTEIN NITROGEN-SOURCE FOR RUMINANTS AND USES THEREOF” (Yara International ASA, priority 2022, published 2025)

Columns and labels:
rumen microbiota = experiment: Gas Production Test, in vitro rumen fermentation model (Example 1); type: cell-based; details: 15 mg N per flask, 72 hours incubation
Protocol: The in vitro model used to simulate rumen digestion and utilization of the products is the Gas Production Test protocol, adapted for protein digestibility, as described in more detail in the following paragraph.
Approximately 1 liter of rumen fluid was collected from two different rumen-fistulated animals in the morning. Rumen fluid was strained through a cheesecloth, kept at 39° C. under CO2 and then diluted 1:19 with a nitrogen-free buffer and mineral solution containing 10.03 g NaHCO3, 1.43 g Na2HPO4, 1.55 g KH2PO4, 0.15 g MgSO4·7H2O, 0.52 g Na2S, 0.017 g CaCl2·2H2O, 0.015 g MnCl2·4H2O, 0.002 g […], 0.012 g FeCl3·6H2O and 0.125 mg resazurin per liter.
To ensure the rumen fluid was depleted of free nitrogen and to ensure nitrogen would be the limiting factor for the microbial growth at the start of the experiment, the buffered rumen fluid was pre-incubated for 4 hours at 39° C. with a carbohydrate overload of glucose, xylose and soluble starch, each at 3.33 g/l. During this pre-incubation, all nitrogen available in the rumen fluid would be incorporated into bacterial protein and other bacterial nitrogen-containing components.
Each product was weighed into different glass bottles on an isonitrogenous base, providing 15 mg N per flask. Then, 60 ml of the pre-incubated buffered rumen fluid was added, under continuous flushing with CO2. Flasks were closed with rubber stoppers and placed in a shaking water bath with 50 movements per minute at 39° C. to start the incubation period. The gas production of each flask was recorded continuously for 72 hours using a fully automated system. All test products including a blank (i.e. no product added to the flask of rumen fluid) were tested in one run in triplicate.
The cumulative gas production was measured continuously for 72 hours.

beef steers = experiment: enteric methane emission, SF6 tracer technique (Example 3); type: in vivo, crossbred yearling steers
Protocol: Methane emission was measured in all steers for five consecutive days using the SF6 tracer technique (Johnson et al., 1994; Henry et al., 2020). In this technique, the steers received a calibrated permeation tube filled with SF6 (3.1 g+0.2 g) before the measurement period. The average SF6 release rate was […]+1.1 mg/d. After five days of training, a vacuum gas collector canister was attached to each animal to collect a sample of daily gas production. Each day at the same hour, a new vacuum canister was replaced throughout the five days of the measurement period. Five collection canisters were used to determine environmental CH4 and SF6 concentrations. A gas sample was taken from each canister and conserved in 120 ml bottles for posterior analysis of CH4 and SF6 using gas chromatography. For the current experiment, only steers with a least three successful days of collection and measurement were considered in the final analysis. Gas samples were analyzed by gas chromatography (Agilent 7820A GC, Agilent Technologies, Palo Alto, CA). A flame ionization and electron capture detector were used for CH4 and SF6 analysis, respectively, with a capillary column (Plot Fused Silica 25 m×0.32 mm, Coating Molsieve 5A, Varian CP7536, Varian Inc., Lake Forest, CA). The injector, column and detector temperatures for CH4 analysis were 80, 160 and 200° C., respectively. For SF6, temperatures were 50, 30 and 300° C. for the injector, the column and the detector, respectively. The carrier gas for CH4 and SF6 was N2. The emissions of CH4 were calculated according to the next equation:
[formula] • QCH4=CH4 emissions per animal (g/day) • QSF6=SF6 release rate (mg/day) • [CH4]γ=the concentration of CH4 in the animals' collection canister • [CH4]β=the concentration of CH4 in the environmental collection canister • [SF6]γ=the concentration of SF6 in the animals' collection canister • [SF6]β=the concentration of SF6 in the environmental collection canister

[1] = five consecutive days, SF6 tracer

Which “maximum gas production rate” value (rumen microbiota) does the source give for `NC(N)=O` [Urea, urea] here?
The value was 17 mL/h.

What about the “time after which gas production stopped / maximum cumulative gas production (end level) was reached” value (rumen microbiota) of the same molecule?
Its value is 30 h.

And the “lag period of cumulative gas production” value (rumen microbiota; buffered rumen fluid, 39° C.)?
The value was “approximately 5 hours”.

And the DM intake (beef steers; Table 7 (methane measurement))?
The DM intake was 6.08 kg/day.

What about the “Methane emission (g/kg ADG)” value (beef steers; [1]) of the same molecule?
The value was 213.79 g/kg ADG.

And the “Methane emission (g/kg DMI)” value (beef steers; [1])?
The value was 36.59 g/kg DMI.

And the “Methane emission (g/kg OMI)” value (beef steers; [1])?
Its value is 38.68 g/kg OMI.
